Assays:
[1] = target: T1, NK-1 receptor (Homo sapiens, UniProt P25103); assay: NK-1 Receptor Binding Assay (125I-labeled substance P, IM9 cells); settings: for IC50: inhibits fifty percent of binding of 125I-substance P to IM9 cells
T1 construct: endogenous in cells; host or cells: IM9 cells (human cell line), whole cells
Outline: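 Radioligand binding on human IM9 cells, ended by filtration over glass fiber filters presoaked in 0.1% polyethylenimine. Specific binding of labeled substance P defined with 20 nM unlabeled ligand.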

[2] = target: T2, human NK-2 receptor (Homo sapiens, UniProt P21452); assay: NK-2 Receptor Binding Assay ([125I]iodohistidyl-neurokinin A, CHO-hNK-2R membranes); settings: for NK-2 percent inhibition of binding: @ 10 μM; for IC50: inhibits fifty percent of binding of [125I]iodohistidyl-neurokinin A to CHO-hNK-2R membranes
T2 construct: expressed in transfected cells; host or cells: CHO-hNK-2R cells (CHO-derived), membrane preparation
T2 sequence (P21452 1-398): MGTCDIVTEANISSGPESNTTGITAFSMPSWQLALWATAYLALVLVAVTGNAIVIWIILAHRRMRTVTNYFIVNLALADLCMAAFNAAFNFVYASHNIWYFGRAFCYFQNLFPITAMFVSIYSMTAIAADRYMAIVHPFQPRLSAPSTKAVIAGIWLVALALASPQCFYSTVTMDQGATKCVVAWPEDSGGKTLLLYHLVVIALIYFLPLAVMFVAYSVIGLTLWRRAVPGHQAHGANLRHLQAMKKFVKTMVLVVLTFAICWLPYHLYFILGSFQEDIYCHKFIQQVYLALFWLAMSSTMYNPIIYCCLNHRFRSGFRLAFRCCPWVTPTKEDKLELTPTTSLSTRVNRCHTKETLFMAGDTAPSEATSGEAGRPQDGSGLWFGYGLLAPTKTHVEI
Outline: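 Membranes from CHO cells stably expressing human NK-2 receptor (~400,000/cell), 40 μg protein per sample, in 50 mM Tris pH 7.4 with 3 mM MnCl2, 0.02% BSA, 4 μg/ml chymostatin. Displacement of 20 pM [125I]iodohistidyl-neurokinin A, 1 hr at room temperature; GF/B filtration, gamma counting. Non-specific binding defined with 1 μM eledoisin.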

T1 sequence (P25103 whole entry): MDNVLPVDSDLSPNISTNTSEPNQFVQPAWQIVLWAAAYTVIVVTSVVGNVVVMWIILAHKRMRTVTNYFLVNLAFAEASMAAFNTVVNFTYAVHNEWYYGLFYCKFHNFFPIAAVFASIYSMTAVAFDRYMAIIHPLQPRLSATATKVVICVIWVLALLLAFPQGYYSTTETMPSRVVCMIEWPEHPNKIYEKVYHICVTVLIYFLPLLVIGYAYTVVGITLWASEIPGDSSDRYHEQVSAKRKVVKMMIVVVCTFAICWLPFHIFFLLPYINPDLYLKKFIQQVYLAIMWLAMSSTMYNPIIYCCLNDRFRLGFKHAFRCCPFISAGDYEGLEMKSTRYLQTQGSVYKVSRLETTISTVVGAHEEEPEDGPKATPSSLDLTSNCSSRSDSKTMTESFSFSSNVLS

SMILES | IC50 [1] [µM] | NK-2 percent inhibition of binding [2] [% @] | NK-1 percent inhibition of binding ([1]; @ 5 μM) | IC50 [2] [µM] | NK-1 percent inhibition of binding ([1]; @ 10 μM) [% @]
COc1ccccc1CN(CC(Cc1cn(C)c2ccccc12)NC(=O)CBr)C(C)=O (stereo not shown) [Example 162] | 0.375 | 0 |  |  | 
CC(=O)N(C)CC(Cc1c[nH]c2ccccc12)NC(c1ccccc1)(c1ccccc1)c1ccccc1 (stereo not shown) [Example 164] |  |  | 0% @ 5 μM | 6.2 | 
CCCCN(CC(Cc1c[nH]c2ccccc12)NC(c1ccccc1)(c1ccccc1)c1ccccc1)C(C)=O (stereo not shown) [Example 165] |  |  | 3% @ 5 μM | 10.5 | 
CCCCCCN(CC(Cc1c[nH]c2ccccc12)NC(c1ccccc1)(c1ccccc1)c1ccccc1)C(C)=O (stereo not shown) [Example 166] |  |  | 0% @ 5 μM | 10 | 
CC(=O)N(CC(Cc1c[nH]c2ccccc12)NC(c1ccccc1)(c1ccccc1)c1ccccc1)c1ccccc1 (stereo not shown) [Example 167] |  |  | 0% @ 5 μM | 21 | 
CC(=O)N(CCc1ccccc1)CC(Cc1c[nH]c2ccccc12)NC(c1ccccc1)(c1ccccc1)c1ccccc1 (stereo not shown) [Example 168] |  |  | 13% @ | > 100 | 

Next, values leading:

IC50 [1] [µM] | NK-2 percent inhibition of binding [2] [% @] | NK-1 percent inhibition of binding ([1]; @ 5 μM) | IC50 [2] [µM] | NK-1 percent inhibition of binding ([1]; @ 10 μM) [% @] | SMILES
 |  | 8% @ 5 μM | 13.9 |  | COc1ccccc1CNCC(Cc1c[nH]c2cc(C)ccc12)NC(c1ccccc1)(c1ccccc1)c1ccccc1 (stereo not shown) [Example 169]
0.067 | 2 |  |  |  | CC(=O)N(Cc1ccccc1Cl)CC(Cc1c[nH]c2ccccc12)NC(c1ccccc1)(c1ccccc1)c1ccccc1 (stereo not shown) [Example 170]
 | 6 | 0% @ 5 μM |  |  | COc1ccccc1CN(CC(Cc1c[nH]c2cc(C)ccc12)NC(c1ccccc1)(c1ccccc1)c1ccccc1)C(C)=O (stereo not shown) [Example 171]
0.074 |  |  | 2 |  | COc1ccccc1CNCC(NC(c1ccccc1)(c1ccccc1)c1ccccc1)c1ccccc1 (stereo not shown) [Example 173]
 |  | 0% @ 5 μM | 6.4 |  | COc1ccccc1CNCC(Cc1ccccc1)NC(c1ccccc1)(c1ccccc1)c1ccccc1 (stereo not shown) [Example 174]
 | 9 | 28% @ |  |  | COc1ccccc1CN(CC(NC(c1ccccc1)(c1ccccc1)c1ccccc1)c1ccccc1)C(C)=O (stereo not shown) [Example 175]
 | 0 | 9% @ 5 μM |  |  | COc1ccccc1CN(CC(NC(c1ccccc1)(c1ccccc1)c1ccccc1)c1ccc(Cl)c(Cl)c1)C(C)=O (stereo not shown) [Example 176]
 | 12 |  |  | 0 | COc1ccccc1CN(CC(Cc1ccccc1)NC(c1ccccc1)(c1ccccc1)c1ccccc1)C(C)=O (stereo not shown) [Example 177]

Reference: patent publication US6869957B1, “Non-peptide tachykinin receptor antagonists” (Eli Lilly and Company, priority 1993, dated 2005)
